Results published in patent US5081225A, “Gram-positive and gram-negative antibacterial compounds from the microorganism, Janthinobacterium lividum” (E. R. Squibb & Sons, Inc., priority 1989, dated 1992).

Columns and labels:
Nocardia asteroides = experiment: agar dilution MIC, aerobic organisms; conditions: Table 2; Nocardia asteroides SC 2626
Micrococcus luteus = experiment: agar dilution MIC, aerobic organisms; conditions: Table 1; Micrococcus luteus SC 2495
Bacillus subtilis = experiment: agar dilution MIC, aerobic organisms; conditions: Table 2; Bacillus subtilis SC 3777
Proteus rettgeri = experiment: agar dilution MIC, aerobic organisms; conditions: Table 1; Proteus rettgeri SC 8479
[1] = agar dilution MIC, aerobic organisms; conditions: Table 2; Nocardia monocytogenes SC 8523
[2] = stability under acidic conditions (observed during isolation); type: physicochemical
Description: The methanol extract is added to MCI GEL CHP20P™ (CHP20P) in water and the mixture is stirred for one hour. The charged resin is collected by vacuum filtration and washed with methanol, water, and acetonitrile. The charged resin is then packed in a column and the antibiotics are eluted with acetonitrile-water-formic acid. Further purification is achieved by chromatography on SEPHADEX LH-20™ in acetonitrile-water. Partial resolution of the three antibiotics, janthinocin A, B, and C, is effected by chromatography on CHP20P eluting with a gradient of acetonitrile-water-formic acid. Final separation and purification of janthinocins B and C is achieved by chromaography on CHP20P eluting with an acetonitrile-aqueous ammonium dihydrogen phosphate buffer gradient, followed by desalting on CHP20P, eluting with acetonitrile-water-formic acid, to give the pure antibiotics as off white powders. […] When janthinocin C is present, it co-elutes with janthinocin B in each of the initial chromatographies.

[3] = tested on: Staphylococcus saprophyticus; experiment: agar dilution MIC, aerobic organisms; conditions: Table 2; Staphylococcus saprophyticus SC 12875
Streptococcus agalactiae = experiment: agar dilution MIC, aerobic organisms
Proteus mirabilis = experiment: agar dilution MIC, aerobic organisms; conditions: Table 1; Proteus mirabilis SC 3855
Enterobacter aerogenes = experiment: agar dilution MIC, aerobic organisms; conditions: Table 1; Enterobacter aerogenes SC 10078
Staphylococcus aureus = experiment: agar dilution MIC, aerobic organisms
Serratia marcescens = experiment: agar dilution MIC, aerobic organisms; conditions: Table 1; Serratia marcescens SC 9783
[4] = tested on: Staphylococcus epidermidis; experiment: agar dilution MIC, aerobic organisms; conditions: Table 2
Streptococcus faecalis = experiment: agar dilution MIC, aerobic organisms
Enterobacter cloacae = experiment: agar dilution MIC, aerobic organisms; conditions: Table 1; Enterobacter cloacae SC 8236
Klebsiella pneumoniae = experiment: agar dilution MIC, aerobic organisms; conditions: Table 1; Klebsiella pneumoniae SC 9527
Citrobacter freundii = experiment: agar dilution MIC, aerobic organisms; conditions: Table 1; Citrobacter freundii SC 9518
Pseudomonas aeruginosa = experiment: agar dilution MIC, aerobic organisms; conditions: Table 1
Escherichia coli = experiment: agar dilution MIC, aerobic organisms; conditions: Table 1
Salmonella typhosa = experiment: agar dilution MIC, aerobic organisms; conditions: Table 1; Salmonella typhosa SC 1195
Klebsiella aerogenes = experiment: agar dilution MIC, aerobic organisms; conditions: Table 1; Klebsiella aerogenes SC 10440
[5] = tested on: Acinetobacter calcoaceticus; experiment: agar dilution MIC, aerobic organisms; conditions: Table 1; Acinetobacter calcoaceticus SC 8333
Proteus vulgaris = experiment: agar dilution MIC, aerobic organisms; conditions: Table 1; Proteus vulgaris SC 9416
Shigella sonnei = experiment: agar dilution MIC, aerobic organisms; type: cell-based; conditions: Table 1; Shigella sonnei SC 8449
Source text: The composition of K-10 agar was:

[6] = Table 1, Streptococcus agalactiae SC 9287
[7] = Table 2, Streptococcus agalactiae SC 9285
[8] = Table 2, Streptococcus agalactiae SC 9287
[9] = Table 1, Staphylococcus aureus SC 1276
[10] = Table 1, Staphylococcus aureus SC 2399
[11] = Table 1, Staphylococcus aureus SC 2400
[12] = Table 1, Staphylococcus aureus SC 10165
[13] = Table 2, Staphylococcus aureus SC 2399 (Penicillin S)
[14] = Table 2, Staphylococcus aureus SC 2400 (Penicillin R)
[15] = Table 2, Staphylococcus aureus SC 3184 (Methicillin R)
[16] = Table 2, Staphylococcus aureus SC 9593 (Penicillin R)
[17] = Table 2, Staphylococcus aureus SC 9998 (Penicillin R)
[18] = Table 2, Staphylococcus aureus SC 10014 (Methicillin R)
[19] = Table 2, Staphylococcus aureus SC 10016 (Tetracycline R)
[20] = Table 2, Staphylococcus aureus SC 10020 (Methicillin R)
[21] = Table 2, Staphylococcus aureus SC 10820 (Erythromycin R)
[22] = Table 2, Staphylococcus aureus SC 11239 (Gentamicin R)
[23] = Table 2, Staphylococcus aureus SC 12691 (Erythromycin R)
[24] = Staphylococcus epidermidis SC 9052 (Penicillin S)
[25] = Staphylococcus epidermidis SC 9083 (Penicillin R)
[26] = Staphylococcus epidermidis SC 9087 (Penicillin R)
[27] = Staphylococcus epidermidis SC 9607 (Penicillin R)
[28] = Staphylococcus epidermidis SC 10547 (Penicillin R)
[29] = Table 1, Streptococcus faecalis SC 9011
[30] = Table 2, Streptococcus faecalis SC 9011
[31] = Table 2, Streptococcus faecalis SC 9376
[32] = Table 2, Streptococcus faecalis SC 10938

## janthinocin A
Nocardia asteroides
  MIC: 0.8 µg/mL
Micrococcus luteus
  MIC: 0.2 µg/mL
Bacillus subtilis
  MIC: 0.4 µg/mL
Proteus rettgeri
  MIC: 50 µg/mL
[1]
  MIC: 0.8 µg/mL
[2]
  chemical stability: converted to janthinocin C under acidic conditions
[3]
  MIC: 0.8 µg/mL
Streptococcus agalactiae; [6]
  MIC: 0.2 µg/mL
Streptococcus agalactiae; [7]
  MIC: 0.4 µg/mL
Streptococcus agalactiae; [8]
  MIC: 0.4 µg/mL
Proteus mirabilis
  MIC: 100 µg/mL
Enterobacter aerogenes
  MIC: 25 µg/mL
Staphylococcus aureus; [9]
  MIC: 0.8 µg/mL
Staphylococcus aureus; [10]
  MIC: 1.6 µg/mL
Staphylococcus aureus; [11]
  MIC: 1.6 µg/mL
Staphylococcus aureus; [12]
  MIC: 1.6 µg/mL
Staphylococcus aureus; [13]
  MIC: 0.8 µg/mL
Staphylococcus aureus; [14]
  MIC: 0.4 µg/mL
Staphylococcus aureus; [15]
  MIC: 1.6 µg/mL
Staphylococcus aureus; [16]
  MIC: 0.8 µg/mL
Staphylococcus aureus; [17]
  MIC: 0.8 µg/mL
Staphylococcus aureus; [18]
  MIC: 0.4 µg/mL
Staphylococcus aureus; [19]
  MIC: 0.2 µg/mL
Staphylococcus aureus; [20]
  MIC: 0.4 µg/mL
Staphylococcus aureus; [21]
  MIC: 0.8 µg/mL
Staphylococcus aureus; [22]
  MIC: 0.8 µg/mL
Staphylococcus aureus; [23]
  MIC: 0.4 µg/mL
Serratia marcescens
  MIC: 25 µg/mL
[4]; [24]
  MIC: 0.8 µg/mL
[4]; [25]
  MIC: 0.8 µg/mL
[4]; [26]
  MIC: 0.8 µg/mL
[4]; [27]
  MIC: 0.4 µg/mL
[4]; [28]
  MIC: 0.8 µg/mL
Streptococcus faecalis; [29]
  MIC: 1.6 µg/mL
Streptococcus faecalis; [30]
  MIC: 0.8 µg/mL
Streptococcus faecalis; [31]
  MIC: 0.8 µg/mL
Streptococcus faecalis; [32]
  MIC: 1.6 µg/mL
Enterobacter cloacae
  MIC: 25 µg/mL
Klebsiella pneumoniae
  MIC: 25 µg/mL
Citrobacter freundii
  MIC: 25 µg/mL
Pseudomonas aeruginosa; Pseudomonas aeruginosa SC 8329
  MIC: 100 µg/mL
Pseudomonas aeruginosa; Pseudomonas aeruginosa SC 9545
  MIC: 50 µg/mL
Escherichia coli; Escherichia coli SC 8294
  MIC: 25 µg/mL
Escherichia coli; Escherichia coli SC 10896
  MIC: 6.3 µg/mL
Escherichia coli; Escherichia coli SC 10909
  MIC: 6.3 µg/mL
Salmonella typhosa
  MIC: 12.5 µg/mL
Klebsiella aerogenes
  MIC: 25 µg/mL

## janthinocin B
Nocardia asteroides
  MIC: 3.1 µg/mL
Micrococcus luteus
  MIC: 0.2 µg/mL
[5]
  MIC: 25 µg/mL
Bacillus subtilis
  MIC: 0.1 µg/mL
Proteus rettgeri
  MIC: 100 µg/mL
[1]
  MIC: 1.6 µg/mL
[3]
  MIC: 0.4 µg/mL
Streptococcus agalactiae; [6]
  MIC: < 0.05 µg/mL
Streptococcus agalactiae; [7]
  MIC: < 0.05 µg/mL
Streptococcus agalactiae; [8]
  MIC: < 0.05 µg/mL
Proteus mirabilis
  MIC: 100 µg/mL
Enterobacter aerogenes
  MIC: 50 µg/mL
Staphylococcus aureus; [9]
  MIC: 0.4 µg/mL
Staphylococcus aureus; [10]
  MIC: 1.6 µg/mL
Staphylococcus aureus; [11]
  MIC: 1.6 µg/mL
Staphylococcus aureus; [12]
  MIC: 0.8 µg/mL
Staphylococcus aureus; [13]
  MIC: 0.4 µg/mL
Staphylococcus aureus; [14]
  MIC: 0.8 µg/mL
Staphylococcus aureus; [15]
  MIC: 0.4 µg/mL
Staphylococcus aureus; [16]
  MIC: 0.4 µg/mL
Staphylococcus aureus; [17]
  MIC: 0.1 µg/mL
Staphylococcus aureus; [18]
  MIC: 0.4 µg/mL
Staphylococcus aureus; [19]
  MIC: 0.4 µg/mL
Staphylococcus aureus; [20]
  MIC: 0.4 µg/mL
Staphylococcus aureus; [21]
  MIC: 0.2 µg/mL
Staphylococcus aureus; [22]
  MIC: 0.2 µg/mL
Staphylococcus aureus; [23]
  MIC: 0.4 µg/mL
Serratia marcescens
  MIC: 50 µg/mL
[4]; [24]
  MIC: 0.4 µg/mL
[4]; [25]
  MIC: 0.4 µg/mL
[4]; [26]
  MIC: 0.4 µg/mL
[4]; [27]
  MIC: 0.4 µg/mL
[4]; [28]
  MIC: 0.4 µg/mL
Streptococcus faecalis; [29]
  MIC: 1.6 µg/mL
Streptococcus faecalis; [30]
  MIC: 1.6 µg/mL
Streptococcus faecalis; [31]
  MIC: 1.6 µg/mL
Streptococcus faecalis; [32]
  MIC: 0.8 µg/mL
Enterobacter cloacae
  MIC: 50 µg/mL
Klebsiella pneumoniae
  MIC: 25 µg/mL
Citrobacter freundii
  MIC: 25 µg/mL
Pseudomonas aeruginosa; Pseudomonas aeruginosa SC 8329
  MIC: 100 µg/mL
Pseudomonas aeruginosa; Pseudomonas aeruginosa SC 9545
  MIC: 50 µg/mL
Escherichia coli; Escherichia coli SC 8294
  MIC: 25 µg/mL
Escherichia coli; Escherichia coli SC 10896
  MIC: 6.3 µg/mL
Escherichia coli; Escherichia coli SC 10909
  MIC: 6.3 µg/mL
Salmonella typhosa
  MIC: 12.5 µg/mL
Klebsiella aerogenes
  MIC: 50 µg/mL

## janthinocin C
Micrococcus luteus
  MIC: 1.6 µg/mL
[5]
  MIC: 25 µg/mL
Proteus rettgeri
  MIC: > 100 µg/mL
Proteus vulgaris
  MIC: > 100 µg/mL
Streptococcus agalactiae; [6]
  MIC: 0.8 µg/mL
Shigella sonnei
  MIC: 100 µg/mL
Proteus mirabilis
  MIC: > 100 µg/mL
Enterobacter aerogenes
  MIC: > 100 µg/mL
Staphylococcus aureus; [9]
  MIC: 1.6 µg/mL
Staphylococcus aureus; [10]
  MIC: 3.1 µg/mL
Staphylococcus aureus; [11]
  MIC: 3.1 µg/mL
Staphylococcus aureus; [12]
  MIC: 1.6 µg/mL
Serratia marcescens
  MIC: > 100 µg/mL
Streptococcus faecalis; [29]
  MIC: 12.5 µg/mL
Enterobacter cloacae
  MIC: > 100 µg/mL
Klebsiella pneumoniae
  MIC: > 100 µg/mL
Citrobacter freundii
  MIC: 100 µg/mL
Pseudomonas aeruginosa; Pseudomonas aeruginosa SC 8329
  MIC: > 100 µg/mL
Pseudomonas aeruginosa; Pseudomonas aeruginosa SC 9545
  MIC: > 100 µg/mL
Escherichia coli; Escherichia coli SC 8294
  MIC: > 100 µg/mL
Escherichia coli; Escherichia coli SC 10857
  MIC: 50 µg/mL
Escherichia coli; Escherichia coli SC 10896
  MIC: 50 µg/mL
Escherichia coli; Escherichia coli SC 10909
  MIC: 25 µg/mL
Salmonella typhosa
  MIC: 100 µg/mL
Klebsiella aerogenes
  MIC: 100 µg/mL
